Results taken from article PMC3733247 (Journal of medicinal chemistry, 2013).

Biological target: HIV-1 RT (Human immunodeficiency virus type 1 group M subtype B, UniProt P03366)
Test: Steady-state competition assay, IC50 determination
Type: biochemical
Conditions: dTTP incorporation, ratio of IC50 values

SMILES: Cc1cc(C#CCOCCOCCOCCOCCOCC#Cc2cn([C@H]3C=C[C@@H](COP(=O)(O)OP(=O)(O)OP(=O)(O)O)O3)c(=O)[nH]c2=O)cc(C)c1Oc1ccnc(Nc2ccc(C#N)cc2)n1 [d4TTP-4PEG-TMC, d4U-Propynyl-4-PEG-propynyl-TMC-triphosphate]
- fold improvement of polymerization inhibition over propargyl-4PEG-TMC: 40 fold
- fold improvement of polymerization inhibition relative to the TMC-derivative: approximately 4.3 fold
- fold improvement of polymerization inhibition relative to the TMC-derivative (listed as triphosphate of d4T-4PEG-TMC): 4.3 fold

SMILES: C#CCOCCOCCOCCOCCOCC#Cc1cc(C)c(Oc2ccnc(Nc3ccc(C#N)cc3)n2)c(C)c1 [propargyl-4PEG-TMC, 4-[4-(4-{3-[2-(2-{2-[2-(Prop-2-ynyloxy)ethoxy]ethoxy}ethoxy)-ethoxy]prop-1-ynyl}-2,6-dimethylphenoxy)pyrimidin-2-ylamino]-benzonitrile]
- fold decrease in potency relative to the TMC-derivative: 10 fold
